Experimental findings from the supplement of paper PMC10307832 are described below.

Assay in all cases: relative viability (nuclei count vs DMSO), 5 days (fraction); higher = more cells survive
Compound in experiment [1]: CCc1cnn2c(NCc3ccc[n+]([O-])c3)cc(N3CCCC[C@H]3CCO)nc12 [Dinaciclib] + CC1(C)CCC(c2ccc(Cl)cc2)=C(CN2CCN(c3ccc(C(=O)NS(=O)(=O)c4ccc(N[C@H](CCN5CCOCC5)CSc5ccccc5)c(S(=O)(=O)C(F)(F)F)c4)cc3)CC2)C1 [Navitoclax] (partner 0.5 µM)
Put shortly:
(§1)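 Lung cancer cell lines were seeded in 1536-well plates and dosed by pin tool the next day, with either a single drug or a fixed anchor-drug dose combined with five library-drug doses (not always all listed) spaced in √10 steps. Five days later, one step fixed the cells and stained their nuclei (final 0.05% Triton X-100, 1% formaldehyde, 1 ug/ml Hoechst), and nuclei were counted on 4× images. Relative viability is the nuclei count in treated wells divided by the count in vehicle wells, and each value is the median of duplicate plates.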

Compound in experiment [2]: CCc1cnn2c(NCc3ccc[n+]([O-])c3)cc(N3CCCC[C@H]3CCO)nc12 [Dinaciclib] + COc1cc2c(Oc3ccc(NC(=O)C4(C(=O)Nc5ccc(F)cc5)CC4)cc3F)ccnc2cc1OCCCN1CCOCC1 [Foretinib] (partner 0.25 µM)
The procedure, abridged: as §1

Compound in experiment [3]: CCc1cnn2c(NCc3ccc[n+]([O-])c3)cc(N3CCCC[C@H]3CCO)nc12 [Dinaciclib] + COc1cccc2cc(-c3nc([C@H]4CC[C@H](C(=O)O)CC4)n4ncnc(N)c34)[nH]c12 [OSI-027] (partner 0.5 µM)
The procedure, abridged: as §1

Compound in experiment [4]: CCc1cnn2c(NCc3ccc[n+]([O-])c3)cc(N3CCCC[C@H]3CCO)nc12 [Dinaciclib] + Cc1cc(Nc2cc(N3CCN(C)CC3)nc(Sc3ccc(NC(=O)C4CC4)cc3)n2)n[nH]1 [Tozasertib] (partner 0.1 µM)
Put shortly: as §1

Compound in experiment [5]: CCc1cnn2c(NCc3ccc[n+]([O-])c3)cc(N3CCCC[C@H]3CCO)nc12 [Dinaciclib] + Nc1nc2[nH]cc(CCc3ccc(C(=O)N[C@@H](CCC(=O)O)C(=O)O)cc3)c2c(=O)[nH]1 [Pemetrexed] (partner 0.2 µM)
Put shortly:
as §1

Consider 201T, for which the relative viability in experiment [1] (first compound 0.009487 µM) was determined as 1.31; in experiment [1] (first compound 0.03 µM), 1.19; in experiment [1] (first compound 0.09487 µM) it was 0.416; in experiment [1] (first compound 0.3 µM) it was 0.32; in experiment [2] (first compound 0.009487 µM), 1.19; in experiment [2] (first compound 0.03 µM), 0.174. In addition, the relative viability came to 0.171 in experiment [2] (first compound 0.09487 µM); 0.15 in experiment [2] (first compound 0.3 µM); 0.801 in experiment [3] (first compound 0.009487 µM); 0.297 in experiment [3] (first compound 0.03 µM); 0.119 in experiment [3] (first compound 0.09487 µM); 0.183 in experiment [3] (first compound 0.3 µM). The relative viability came to 0.915 in experiment [4] (first compound 0.009487 µM); 0.293 in experiment [4] (first compound 0.03 µM); 0.274 in experiment [4] (first compound 0.09487 µM); 0.263 in experiment [4] (first compound 0.3 µM); 0.317 in experiment [5] (first compound 0.009487 µM); 0.311 in experiment [5] (first compound 0.03 µM). Also, the relative viability in experiment [5] (first compound 0.09487 µM) came to 0.206; in experiment [5] (first compound 0.3 µM), 0.187.

With A549, the relative viability was 1.05 in experiment [1] (first compound 0.009487 µM); 0.0352 in experiment [1] (first compound 0.03 µM); 0.038 in experiment [1] (first compound 0.09487 µM); 0.0398 in experiment [1] (first compound 0.3 µM); 0.952 in experiment [2] (first compound 0.009487 µM); 0.0544 in experiment [2] (first compound 0.03 µM). For the same cell line, the relative viability in experiment [2] (first compound 0.09487 µM) is 0.0214; in experiment [2] (first compound 0.3 µM), 0.0246.

For the cell line A-427, the relative viability stood at 0.94 in experiment [1] (first compound 0.009487 µM); 0.434 in experiment [1] (first compound 0.03 µM); 0.089 in experiment [1] (first compound 0.09487 µM); 0.0921 in experiment [1] (first compound 0.3 µM); 0.955 in experiment [2] (first compound 0.009487 µM); 0.117 in experiment [2] (first compound 0.03 µM). Moreover, the relative viability in experiment [2] (first compound 0.09487 µM) came out at 0.0874; in experiment [2] (first compound 0.3 µM) it was 0.0871; in experiment [3] (first compound 0.009487 µM), 0.385; in experiment [3] (first compound 0.03 µM) it was 0.143; in experiment [3] (first compound 0.09487 µM) it was 0.0922; in experiment [3] (first compound 0.3 µM), 0.0796. Moreover, the relative viability in experiment [4] (first compound 0.009487 µM) was 0.236; in experiment [4] (first compound 0.03 µM), 0.0917; in experiment [4] (first compound 0.09487 µM) it was 0.0666; in experiment [4] (first compound 0.3 µM), 0.0775; in experiment [5] (first compound 0.009487 µM), 0.883; in experiment [5] (first compound 0.03 µM), 0.156. The relative viability in experiment [5] (first compound 0.09487 µM) came to 0.101; in experiment [5] (first compound 0.3 µM), 0.112.

Consider ABC-1, for which the relative viability in experiment [2] (first compound 0.009487 µM) is 0.876; in experiment [2] (first compound 0.03 µM) it was 0.166; in experiment [2] (first compound 0.09487 µM), 0.126; in experiment [2] (first compound 0.3 µM) it was 0.106; in experiment [3] (first compound 0.009487 µM), 0.329; in experiment [3] (first compound 0.03 µM) it was 0.123. Besides, the relative viability amounted to 0.104 in experiment [3] (first compound 0.09487 µM); 0.118 in experiment [3] (first compound 0.3 µM); 0.199 in experiment [4] (first compound 0.009487 µM); 0.174 in experiment [4] (first compound 0.03 µM); 0.11 in experiment [4] (first compound 0.09487 µM); 0.0868 in experiment [4] (first compound 0.3 µM).

With BEN, the relative viability in experiment [1] (first compound 0.009487 µM) was 0.102; in experiment [1] (first compound 0.03 µM), 0.0524; in experiment [1] (first compound 0.09487 µM), 0.0833; in experiment [1] (first compound 0.3 µM), 0.0414; in experiment [2] (first compound 0.009487 µM), 0.866; in experiment [2] (first compound 0.03 µM), 0.845. Also, the relative viability in experiment [2] (first compound 0.09487 µM) was 0.153; in experiment [2] (first compound 0.3 µM), 0.176; in experiment [3] (first compound 0.009487 µM), 0.289; in experiment [3] (first compound 0.03 µM), 0.264; in experiment [3] (first compound 0.09487 µM) it was 0.191; in experiment [3] (first compound 0.3 µM) it was 0.198. The relative viability in experiment [4] (first compound 0.009487 µM) is 0.568; in experiment [4] (first compound 0.03 µM), 0.638; in experiment [4] (first compound 0.09487 µM), 0.268; in experiment [4] (first compound 0.3 µM), 0.348; in experiment [5] (first compound 0.009487 µM), 1.07; in experiment [5] (first compound 0.03 µM), 0.501. The relative viability in experiment [5] (first compound 0.09487 µM) amounted to 0.23; in experiment [5] (first compound 0.3 µM), 0.274.

On to CAL-12T, for which the relative viability was 0.487 in experiment [1] (first compound 0.009487 µM); 0.0619 in experiment [1] (first compound 0.03 µM); 0.0673 in experiment [1] (first compound 0.09487 µM); 0.0743 in experiment [1] (first compound 0.3 µM); 1.07 in experiment [2] (first compound 0.009487 µM); 0.105 in experiment [2] (first compound 0.03 µM). Besides, the relative viability in experiment [2] (first compound 0.09487 µM) was determined as 0.13; in experiment [2] (first compound 0.3 µM) it was 0.116; in experiment [3] (first compound 0.009487 µM), 0.235; in experiment [3] (first compound 0.03 µM), 0.136; in experiment [3] (first compound 0.09487 µM), 0.118; in experiment [3] (first compound 0.3 µM) it was 0.124. In addition, the relative viability in experiment [4] (first compound 0.009487 µM) amounted to 0.166; in experiment [4] (first compound 0.03 µM), 0.0862; in experiment [4] (first compound 0.09487 µM), 0.0939; in experiment [4] (first compound 0.3 µM), 0.0838; in experiment [5] (first compound 0.009487 µM), 0.771; in experiment [5] (first compound 0.03 µM), 0.141. Further, the results for the relative viability in experiment [5] (first compound 0.09487 µM) and in experiment [5] (first compound 0.3 µM) were 0.133 and 0.13, respectively.

Regarding COR-L23, the relative viability in experiment [1] (first compound 0.009487 µM) is 0.994; in experiment [1] (first compound 0.03 µM), 0.0863; in experiment [1] (first compound 0.09487 µM), 0.066; in experiment [1] (first compound 0.3 µM), 0.0652; in experiment [2] (first compound 0.009487 µM), 0.871; in experiment [2] (first compound 0.03 µM), 0.118. Moreover, the relative viability turned out to be 0.0996 in experiment [2] (first compound 0.09487 µM); 0.0936 in experiment [2] (first compound 0.3 µM); 0.608 in experiment [3] (first compound 0.009487 µM); 0.0953 in experiment [3] (first compound 0.03 µM); 0.0761 in experiment [3] (first compound 0.09487 µM); 0.0902 in experiment [3] (first compound 0.3 µM). Besides, the relative viability came to 0.214 in experiment [4] (first compound 0.009487 µM); 0.0848 in experiment [4] (first compound 0.03 µM); 0.0671 in experiment [4] (first compound 0.09487 µM); 0.0704 in experiment [4] (first compound 0.3 µM); 0.184 in experiment [5] (first compound 0.009487 µM); 0.21 in experiment [5] (first compound 0.03 µM). Also, the figures for the relative viability in experiment [5] (first compound 0.09487 µM) and in experiment [5] (first compound 0.3 µM) were 0.112 and 0.093, respectively.

Consider COR-L 105, for which the relative viability in experiment [1] (first compound 0.009487 µM) was 0.496; in experiment [1] (first compound 0.03 µM), 0.213; in experiment [1] (first compound 0.09487 µM) it was 0.214; in experiment [1] (first compound 0.3 µM), 0.218; in experiment [2] (first compound 0.009487 µM) it was 1.17; in experiment [2] (first compound 0.03 µM) it was 0.644. The relative viability in experiment [2] (first compound 0.09487 µM) stood at 0.247; in experiment [2] (first compound 0.3 µM), 0.259; in experiment [3] (first compound 0.009487 µM) it was 0.51; in experiment [3] (first compound 0.03 µM), 0.232; in experiment [3] (first compound 0.09487 µM), 0.224; in experiment [3] (first compound 0.3 µM), 0.234. The relative viability in experiment [4] (first compound 0.009487 µM) was determined as 0.369; in experiment [4] (first compound 0.03 µM) it was 0.304; in experiment [4] (first compound 0.09487 µM), 0.25; in experiment [4] (first compound 0.3 µM) it was 0.208; in experiment [5] (first compound 0.009487 µM) it was 0.91; in experiment [5] (first compound 0.03 µM), 0.291. Also, the relative viability in experiment [5] (first compound 0.09487 µM) is 0.348; in experiment [5] (first compound 0.3 µM) it was 0.295.
